From US20060069132A1, “Azolecarboxamide herbicides” (priority 2004, published 2006)

Tests used:
barnyardgrass [1] = experiment: Test B pre-/postemergence herbicide test; assay type: in vivo, Echinochloa crus-galli; details: for Barnyardgrass plant response rating: postemergence
Outline: (§1)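 Plants compared with untreated controls 13–15 days post-treatment and given a visual 0–100 injury score. Applications: preemergence to seeds; postemergence at 1- to 4-leaf (2–18 cm); paddy species flooded, 2-leaf stage. Vehicle non-phytotoxic, surfactant included.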

cocklebur = experiment: Test B pre-/postemergence herbicide test; assay type: in vivo, Xanthium strumarium; details: for Cocklebur plant response rating: postemergence
Outline: as §1

morningglory [2] = experiment: Test A pre-/postemergence herbicide test; assay type: in vivo, Ipomoea spp.
Outline: (§2)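 Both application timings were run together: directed soil spray over freshly planted seeds in sandy loam, and runoff spray onto 2–10 cm seedlings. Evaluation after ~10 days in greenhouse used a 0–100 visual scale versus untreated controls.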

barnyardgrass [3] = experiment: Test B flooded paddy test; assay type: in vivo, Echinochloa crus-galli; details: 1000 g ai/ha, scale 0 to 100 (0 no effect, 100 complete control)
Outline: (§3)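 Formulated test chemicals went onto postemergence plants measuring 2 to 18 cm, at one to four leaves. For the paddy assay, species had reached two leaves. Scoring took place 13–15 days later by eye, relative to untreated plants, using 0 for no effect up to 100 for full control.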

rice [4] = experiment: Test B flooded paddy test; assay type: in vivo, Oryza sativa; details: 1000 g ai/ha, scale 0 to 100 (0 no effect, 100 complete control)
Outline: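 Read-out: visual comparison with controls, scored 0 to 100, where 100 means complete control and 0 no effect. Formulated chemicals were applied postemergence to plants 2–18 cm tall (1- to 4-leaf), or to flooded-paddy plants at the 2-leaf stage, then held 13 to 15 days under glass.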

wheat = experiment: Test B postemergence herbicide test; assay type: in vivo, Triticum aestivum; set-up: key to Wheat plant response rating: 0 = no effect, 100 = complete control; details: postemergence
Outline: (§4)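 Visual ratings, 0 (no effect) to 100 (complete control), made versus controls after 13–15 d greenhouse. Paddy plants treated at 2-leaf stage; postemergence plants at 1- to 4-leaf stage, 2–18 cm tall.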

blackgrass = experiment: Test B postemergence herbicide test; assay type: in vivo, Alopecurus myosuroides; details: postemergence
Outline: as §3

giant foxtail [5] = experiment: Test B pre-/postemergence herbicide test; assay type: in vivo, Setaria faberi; details: for Foxtail, Giant plant response rating: postemergence
Outline: (§5)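 Visual rating, 0 (no effect) to 100 (complete control), versus untreated controls after 13–15 d in greenhouse. Pre- and postemergence applications (postemergence plants 2–18 cm, 1–4 leaves); flooded paddy arm at 2-leaf stage. Compounds in non-phytotoxic solvent plus surfactant.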

redroot pigweed = experiment: Test A pre-/postemergence herbicide test; assay type: in vivo, Amaranthus retroflexus
Outline: as §2

velvetleaf [6] = experiment: Test A pre-/postemergence herbicide test; assay type: in vivo, Abutilon theophrasti
Outline: as §2

velvetleaf [7] = experiment: Test B pre-/postemergence herbicide test; assay type: in vivo, Abutilon theophrasti; details: for Velvetleaf plant response rating: postemergence
Outline: as §5

lambsquarters = experiment: Test B pre-/postemergence herbicide test; assay type: in vivo, Chenopodium album; details: for Lambsquarters plant response rating: postemergence
Outline: as §5

pigweed = experiment: Test B pre-/postemergence herbicide test; assay type: in vivo, Amaranthus retroflexus; details: for Pigweed plant response rating: postemergence
Outline: as §5

large crabgrass [8] = experiment: Test A pre-/postemergence herbicide test; assay type: in vivo, Digitaria sanguinalis
Outline: as §2

giant foxtail [9] = experiment: Test A pre-/postemergence herbicide test; assay type: in vivo, Setaria faberi
Outline: as §2

[10] = test system: small flower umbrella sedge; experiment: Test B flooded paddy test; assay type: in vivo, Cyperus difformis; details: 1000 g ai/ha, scale 0 to 100 (0 no effect, 100 complete control)
Outline: as §3

ducksalad = experiment: Test B flooded paddy test; assay type: in vivo, Heteranthera limosa; details: 1000 g ai/ha, scale 0 to 100 (0 no effect, 100 complete control)
Outline: as §3

Surinam grass = experiment: Test B pre-/postemergence herbicide test; assay type: in vivo, Urochloa decumbens; details: for Surinam Grass plant response rating: postemergence
Outline: as §5

wild oat = experiment: Test B postemergence herbicide test; assay type: in vivo, Avena fatua; details: postemergence
Outline: as §4

rice [11] = experiment: Test B pre-/postemergence herbicide test; assay type: in vivo, Oryza sativa; details: 0 = no effect, 100 = complete control, preemergence
Outline: as §5

large crabgrass [12] = experiment: Test B pre-/postemergence herbicide test; assay type: in vivo, Digitaria sanguinalis; details: for Crabgrass, Large plant response rating: postemergence
Outline: as §5

morningglory [13] = experiment: Test B pre-/postemergence herbicide test; assay type: in vivo, Ipomoea coccinea; details: for Morningglory plant response rating: postemergence
Outline: as §1

corn = experiment: Test B pre-/postemergence herbicide test; assay type: in vivo, Zea mays; details: for Corn plant response rating: postemergence
Outline: as §5

barnyardgrass [14] = experiment: Test A pre-/postemergence herbicide test; assay type: in vivo, Echinochloa crus-galli
Outline: as §2

[15] = 125 g ai/ha, 0 = no effect, 100 = complete control, preemergence
[16] = 500 g ai/ha, visual rating, 0 = no effect, 100 = complete control, preemergence
[17] = 125 g ai/ha, visual rating, scale 0 (no effect) to 100 (complete control)
[18] = 500 g ai/ha, scale 0 to 100, 0 is no effect, 100 is complete control
[19] = Postemergence, 500 g ai/ha, 0 to 100 scale, 0 no effect, 100 complete control
[20] = Postemergence, 2000 g ai/ha, 0 to 100 scale, 0 no effect, 100 complete control
[21] = Preemergence, 2000 g ai/ha, visual rating, 0 to 100 scale (0 no effect, 100 complete control)
[22] = preemergence, 500 g ai/ha, visual injury, 0 to 100 scale (0 no effect, 100 complete control)

CCN(C)C(=O)c1ccc(F)c(NC(=O)c2cc(C(C)(C)C)nn2CC)n1 [Compound 280]
Barnyardgrass plant response rating (0 to 100 scale) (barnyardgrass [1]; [15]): 0 | Plant response rating, Barnyardgrass (barnyardgrass [1]; [16]): 10 | Barnyardgrass plant response rating (barnyardgrass [1]; [17]): 0 | Barnyardgrass plant response rating (barnyardgrass [1]; [18]): 0 | Cocklebur plant response rating (0 to 100 scale) (cocklebur; [15]): 0 | Plant response rating, Cocklebur (cocklebur; [16]): 0 | Cocklebur plant response rating (cocklebur; [17]): 0 | Cocklebur plant response rating (cocklebur; [18]): 30 | Morningglory plant response rating (morningglory [2]; [19]): 0 | Plant response rating, Morningglory (morningglory [2]; [20]): 10 | Morningglory plant response rating (morningglory [2]; [21]): 15 | Morningglory plant response rating (morningglory [2]; [22]): 0 | Barnyardgrass plant response rating (barnyardgrass [3]): 0 | Rice plant response rating (rice [4]): 0 | Wheat plant response rating (wheat; [17]): 20 | Wheat plant response rating (wheat; [18]): 30 | Blackgrass plant response rating (blackgrass; [17]): 20 | Blackgrass plant response rating (blackgrass; [18]): 20 | Foxtail, Giant plant response rating (0 to 100 scale) (giant foxtail [5]; [15]): 0 | Plant response rating, Foxtail, Giant (giant foxtail [5]; [16]): 10 | Foxtail, Giant plant response rating (giant foxtail [5]; [17]): 0 | Foxtail, Giant plant response rating (giant foxtail [5]; [18]): 0 | Pigweed plant response rating (redroot pigweed; [19]): 55 | Plant response rating, Pigweed (redroot pigweed; [20]): 70 | Pigweed plant response rating (redroot pigweed; [21]): 90 | Pigweed plant response rating (redroot pigweed; [22]): 15 | Velvetleaf plant response rating (velvetleaf [6]; [19]): 20 | Plant response rating, Velvetleaf (velvetleaf [6]; [20]): 30 | Velvetleaf plant response rating (velvetleaf [6]; [21]): 30 | Velvetleaf plant response rating (velvetleaf [6]; [22]): 0 | Velvetleaf plant response rating (0 to 100 scale) (velvetleaf [7]; [15]): 10 | Plant response rating, Velvetleaf (velvetleaf [7]; [16]): 20 | Velvetleaf plant response rating (velvetleaf [7]; [17]): 10 | Velvetleaf plant response rating (velvetleaf [7]; [18]): 20 | Plant response rating, Lambsquarters (lambsquarters; [16]): 80 | Lambsquarters plant response rating (lambsquarters; [17]): 10 | Lambsquarters plant response rating (lambsquarters; [18]): 20 | Pigweed plant response rating (0 to 100 scale) (pigweed; [15]): 70 | Plant response rating, Pigweed (pigweed; [16]): 100 | Pigweed plant response rating (pigweed; [17]): 10 | Pigweed plant response rating (pigweed; [18]): 20 | Crabgrass, Large plant response rating (large crabgrass [8]; [19]): 5 | Plant response rating, Crabgrass, Large (large crabgrass [8]; [20]): 0 | Crabgrass, Large plant response rating (large crabgrass [8]; [21]): 25 | Crabgrass, Large plant response rating (large crabgrass [8]; [22]): 0 | Foxtail, Giant plant response rating (giant foxtail [9]; [19]): 0 | Plant response rating, Foxtail, Giant (giant foxtail [9]; [20]): 0 | Foxtail, Giant plant response rating (giant foxtail [9]; [21]): 45 | Foxtail, Giant plant response rating (giant foxtail [9]; [22]): 5 | Sedge, Umbrella plant response rating [10]: 30 | Ducksalad plant response rating (ducksalad): 20 | Surinam Grass plant response rating (0 to 100 scale) (Surinam grass; [15]): 0 | Plant response rating, Surinam Grass (Surinam grass; [16]): 10 | Surinam Grass plant response rating (Surinam grass; [17]): 0 | Surinam Grass plant response rating (Surinam grass; [18]): 10 | Oat, Wild plant response rating (wild oat; [17]): 10 | Oat, Wild plant response rating (wild oat; [18]): 20 | Rice plant response rating (0 to 100 scale) (rice [11]; 125 g ai/ha): 0 | Plant response rating, Rice (rice [11]; 500 g ai/ha, visual rating): 10 | Crabgrass, Large plant response rating (0 to 100 scale) (large crabgrass [12]; [15]): 0 | Plant response rating, Crabgrass, Large (large crabgrass [12]; [16]): 10 | Crabgrass, Large plant response rating (large crabgrass [12]; [17]): 0 | Crabgrass, Large plant response rating (large crabgrass [12]; [18]): 0 | Morningglory plant response rating (0 to 100 scale) (morningglory [13]; [15]): 0 | Plant response rating, Morningglory (morningglory [13]; [16]): 0 | Morningglory plant response rating (morningglory [13]; [17]): 0 | Morningglory plant response rating (morningglory [13]; [18]): 10 | Corn plant response rating (0 to 100 scale) (corn; [15]): 0 | Plant response rating, Corn (corn; [16]): 0 | Corn plant response rating (corn; [17]): 0 | Corn plant response rating (corn; [18]): 10 | Barnyardgrass plant response rating (barnyardgrass [14]; [19]): 0 | Plant response rating, Barnyardgrass (barnyardgrass [14]; [20]): 25 | Barnyardgrass plant response rating (barnyardgrass [14]; [21]): 45 | Barnyardgrass plant response rating (barnyardgrass [14]; [22]): 0
